The test system of test [1] is umami taste of MSG. The experiment in a line: Umami taste detection threshold of MSG/Pyridinium-Betaine mixtures (triangle test, sensory panel). The class given is in vivo. The settings on record: equimolar mixture with MSG; for Threshold decrease: vs MSG in water 1.5 mmol/L. How it is done: • Sensory panel training: […] Sensory analyses were performed in a sensory panel room at 22-25° C. on three different sessions. • Taste thresholds: The taste thresholds of the tastants or mixtures containing basic tastants plus Pyridinium-Betains were determined in a triangle test using Evian® mineral water as the solvent at a defined pH ([…] and H.-D. Belitz, Z. Lebensm. Unters. Forsch. 1975, 159, 65-72). The samples (3 mL) were presented in order of increasing concentrations (serial 1:1 dilutions). The threshold values evaluated in two different sessions were averaged. […] The taste intensities of aqueous (Evian®) solutions containing a basic tastant, such as glucose and MSG, for example, in constant concentrations and the compounds of the general formula (A), for example […], in various concentrations were compared with those of a solution containing the basic tastant only. To achieve this, triangle tests were performed with two glass vials containing the basic tastant in constant concentrations, and one glass vial containing a stepwise 1:1-diluted mixture of basic […]. […] The relative taste strength (taste enhancing factor) of a mixture containing the basic […] was related to the basic tastants glucose, MSG, or other tastants, respectively, as standard substances, and was determined as the ratio of the concentrations c of iso-intensely tasting solutions of the basic tastant, such as glucose (glc), and the mixture containing tastant plus Pyridinium-Betain, […])=[…] […] This taste enhancing effect is illustrated in examples. Pyridinium-Betaines not only enhance the sweet taste perception, but also the umami taste.

Test [2] concerns beef taste recombinate. The experiment in a line: Effect of Alapyridaine on the taste profile of a beef broth taste recombinate. The settings on record: pH 5. Format: in vivo. The source says: The beef taste recombinate (K. Shima et al., J. Agric. Food. Chem. 1998, 46, 1465–1468) consisting of 16 amino acids, 4 sugars, three 5′-nucleotides, 3 carbonic acids, 3 salts, and 4 other compounds was used as a sample having a basic brothy taste at pH 5, i.e. (in mg/L water) threonine (68), serine (38), MSG (64), proline (16), glycine (56), alanine (192), valine (34), methionine (20), isoleucine (16), leucine (28), tyrosine (38), phenylalanine (26), lysine hydrochloride (44), histidine (38), arginine (32), taurine (248), ribose (4), mannose (8), fructose (20), glucose (40), IMP.2Na.5H20 (424), GMP.2Na7H20 (80), AMP (60), pyroglutamic acid (1296), lactic acid (3567), succinic acid (98), NaCl (854), KCl (3940), MgCl2.6H20 (1104), CaCl2.2H20 (14), H3PO4, carnosine (912), creatine (1106), and creatinine (572) were dissolved in 1 L of water, and the pH was adjusted to 5.0.
The sensory panel was asked to score the given taste qualities of the biomimetic beef taste recombinate on a scale from 0 (not detectable) to 5 (strong). To study the influence of Alapyridaine on the taste qualities of that recombinate, a triangle test was performed with two glass vials containing the pure beef taste recombinate, and one glass vial containing the beef taste recombinate plus a known amount of Alapyridaine. […]

Structures can show the parent of a compound that is named as a salt.

As for `CC(C(=O)[O-])[n+]1cc(O)ccc1CO` (centres unmarked) [Alapyridaine, N-(1-carboxyethyl)-3-hydroxy-6-hydroxymethyl-pyridinium inner salt], the Taste quality result in test [1] (pH 5.0), in test [1] (pH 7.0) and in test [1] (pH 9.0) was “umami” each time. The Umami detection threshold in test [1] (pH 5.0), in test [1] (pH 7.0) and in test [1] (pH 9.0) was 0.4 mmol/kg water each time. For the same molecule, the Threshold decrease in test [1] (pH 5.0), in test [1] (pH 7.0) and in test [1] (pH 9.0) was 4.0 each time. For the same molecule, the “effect on taste profile of beef taste recombinate” value in test [2] (0.5 mg/L Alapyridaine added) was “increased the umami character and decreased the sour note”; in test [2] (5 mg/L Alapyridaine added), “more intense umami, sweet and salty taste and a reduced sourness”.

These data come from US7175872B2, “Pyridinium-Betain compounds for use as taste modulators” (Nestec S.A., priority 2002, dated 2007).
